Experimental data published in PMC5538626, “Structural and functional analysis of the GABARAP interaction motif (GIM)” (EMBO Reports, 2017).
Ends that are not written are not given here.

Assays:
LC3B = target: T1, LC3B (Homo sapiens, UniProt Q9GZQ8); test: ITC titration of PLEKHM1-LIR peptides into LC3B; assay type: binding; conditions: ITC, 25°C, pH 7.0; for ΔH: VP-ITC, one-site model, 0.4 mM peptide into 0.020 mM protein, 50 mM Na2HPO4, 100 mM NaCl
T1 construct: modified Ub-leader (ubiquitin fusion leader) (N); made in house; host or cells: E. coli NEB T7 Express
Experimental: The genes for the truncated LC3A^2–121, LC3C^8–125, GABARAP^2–117 and GABARAP‐L1^2–117 proteins were cloned into pET30ΔSE vector between the BamHI and XhoI sites using previously established protocols 38. The chimeric constructs of the PLEKHM1‐LIR attached to the LC3A, GABARAP and GABARAP‐L1 proteins were prepared by inserting the oligonucleotide sequence corresponding to the PLEKHM1‐LIR peptide (P^629[…]^638) and glycine–serine linker into the BamHI site of the pET30ΔSE vector, placing the PLEKHM1‐LIR at the N‐terminal of the mature chimeric protein (similar to 31, 38). For the expression of human LC3 and GABARAP proteins for ITC and NMR experiments, plasmids with appropriate modified Ub‐leaders in pET vectors were used 39. Gene, encoding PLEKHM1‐LIR peptide, was ordered as synthetic oligonucleotides (Eurofins Genomics GmbH) and cloned into the pET39_Ub63_ vector 39 by NcoI–BamHI restriction sites. After TEV cleavage, the resulting peptide has the amino acid sequence GAMG‐P^629[…]^642, where the first four residues (GAMG) are the cloning artefact.
The chimeric constructs were expressed as a His‐tag fusion protein in E. coli BL21(DE3) cells. The cells were induced with 0.3 mM IPTG at OD600 0.6 for 16 h at 26°C. The cell pellets were lysed using mechanical sonication in lysis buffer (20 mM Tris–HCl pH 9.0, 100 mM NaCl, 10 mM imidazole, supplemented with 0.1% Triton X‐100). The proteins were purified using Ni‐NTA beads (GE Healthcare) and the His‐tag was cleaved using thrombin (Invitrogen) at room temperature for 16 h. The last step was gel filtration chromatography using a Superdex S200/300 GL column (GE Healthcare). The proteins were concentrated using spin concentrators (Vivaspin). For ITC and NMR studies, the non‐labelled and stable isotopes labelled LC3 and GABARAP proteins were obtained based on the protocols described elsewhere 30, 39. Here, E. coli NEB T7 Express culture transformed with corresponding plasmids were grown till OD600 nm = 1.0 and protein expression was induced with 0.2 mM IPTG. The cultures were incubated at 25°C for 8–12 h before cell harvesting. Isolation and purification procedures were similar to those reported in Ref. 22, 40. Before experiments, all proteins and peptides were equilibrated with a buffer containing 50 mM Na2HPO4, 100 mM NaCl at pH 7.0, and supplied with 5 mM protease inhibitor cocktail.
The protocol for preparation of non‐labelled and ^13C,^15N‐labelled PLEKHM1‐LIR peptide was slightly modified to achieve highest yield of the peptide. The 50 ml M9 culture was inoculated with NEB T7 cell transformed with pET39_Ub63‐PLEKHM1‐LIR plasmid and grown overnight at 37°. The collected cells were resuspended in 2 l of either LB or M9 media contained 1.5 g ^15N‐labelled NH4Cl and 3.0 g of ^13C‐labelled glucose. The cultures were grown at 37° till A(600 nm) = 0.9 and supplied with 1 mM of IPTG to induce Ub63‐PLEKHM1‐LIR overexpression (3 h at 37°). After that cells were harvested by centrifugation, re‐suspended in buffer contained 50 mM Tris–HCl pH = 7.9, 200 mM NaCl, 5% glycerol, 0.1 mg/ml DNase A and 4 mM protease inhibitor cocktail. After cell lysis by French press, debris was removed by centrifugation and clear supernatant was applied onto the column contained Ni‐NTA Sepharose equilibrated with the loading buffer (50 mM Tris–HCl pH = 7.9, 250 mM NaCl, 1% glycerol and 20 mM imidazole). Elution was performed with 400 mM imidazole in the same buffer. An aliquot of pure Ub63‐PLEKHM1‐LIR fractions was further purified by gel filtration on Superdex75 26 × 60 column for control ITC and analytical size exclusion chromatography experiments, remaining fusion protein was processed with the TEV‐protease and PLEKHM1‐LIR peptide was purified to 95% purity by reverse Ni‐NTA chromatography and followed gel filtration on Superdex75 26 × 60 column. Peak maximum of peptide was detected at […] (void volume 115 ml). Pure peptide was concentrated in Amicon concentrators with cut‐off of 3 kDa (> 95% retention). […]

[1] = target: LC3-subfamily of proteins; test: ITC, LC3-subfamily (range); assay type: binding, human
Experimental: All titration experiments were performed at 25°C using a VP‐ITC microcalorimeter (Malvern Instruments Ltd, UK). The ITC data were analysed with the ITC‐Origin 7.0 software with a “one‐site” binding model. The peptides at concentrations of 0.4 mM were titrated into 0.020 mM LC3 and GABARAP proteins in 26 steps. The protein and peptide concentrations were calculated from the UV absorption at 280 nm by NanoDrop spectrophotometer (Thermo Fisher Scientific, DE, USA).

GAMGPQQEDEWVNVQYPD [PLEKHM1‐LIR WT] was tested, and the ΔH (LC3B) was -5.8 ± 0.2 kcal/mol, the ΔH (LC3B; listed as PLEKHM1-LIR) was -5.8 ± 0.2 kcal/mol and the KA (LC3B) was 0.16 ± 0.01 ×10^6 M^−1. The “N (number of binding sites)” value (LC3B) was 1.06 ± 0.01, the ΔG (LC3B) was -7.09 kcal/mol and the ΔS (LC3B) was “+4.27 cal mol^−1 K^−1”. For the same sequence, the “−T × ΔS” value (LC3B) was -1.27 kcal/mol, the KA (LC3B; listed as PLEKHM1-LIR) was 0.16±0.01 ×10^6 M^−1 and the ΔG (LC3B; listed as PLEKHM1-LIR) was -7.09 kcal/mol. The “−T × ΔS” value (LC3B; listed as PLEKHM1-LIR) was -1.27 kcal/mol and the Kd [1] was 3.5 to 6.3 µM.
